Source: patent US20200405659A1, “COMPOSITION CONTAINING 2,3-BUTANEDIOL AS ACTIVE INGREDIENT” (GS CALTEX CORPORATION, priority 2018, published 2020)

Key:
collagenase (MMP-1) = test: Collagenase (MMP-1) content in CCD-986SK cells (Human MMP-1 ELISA kit); format: cell-based; conditions: for Collagenase (MMP-1)(pg/mL) / MMP-1 content relative to untreated control (%): 48 hours; for MMP-1 content relative to untreated control (%): specimen-free = 100.00, decreased percent means collagenase restrained; for restraining effects of collagenase: compared with the Comparative Examples using 1,3-butanediol or 1,3-propanediol
Experimental: The anti-wrinkle effects of 2,3-butanediol were evaluated as the restraining effects of the decomposition of interstitial collagen, etc., by decreasing skin collagenase (for example, MMP-1).
To evaluate the anti-wrinkle effects of 2,3-butanediol, serum-free mediums composed of 99 mL of Dulbecco's modified eagle medium (Gibco) and 1 mL of Penicillin-streptomycin (Gibco), diluted with 2R,3S-butanediol, 2R,3R-butanediol, 1,3-butanediol and 1,3-propanediol in the concentrations shown in Table 3 below, were prepared.
In addition, cells CCD-986SK (ACTT CRL-6323™) were seeded in well plates by 1 mL with 5×10^4, and cultivated at 37° C. in a 5% CO2 cultivator for 24 hours. The cultivated cells were replaced with the mediums of the Examples and Comparative Examples and cultivated at 37° C. in a 5% CO2 cultivator for 48 hours.
A cell dissolution material was recovered, the protein content was measured using BSA protein assay reagent kit (Thermo scientific PIERCE, USA), the collagenase (MMP-1) content was measured suing Human MMP-1 ELISA kit (Sigma), and the results are shown in Table 4 below.
That is, the decreased percent calculated means that collagenase is effectively restrained.

[1] = DPPH free radical elimination activity (anti-oxidation ratio); conditions: for change of anti-oxidation ratio with the increase of the concentration: from 0.1 wt % to 1 wt %
Experimental: To evaluate the anti-oxidative effects of 2,3-butanediol, the elimination activity of free radicals was measured using a 2,2-diphenyl-1-picrylhydrazyl (DPPH) analysis method. Particularly, an anti-oxidation ratio was calculated by Equation 2 below.
Anti-oxidation ratio (%)=[[(absorbance of specimen treated group−absorbance of specimen untreated group)/(absorbance of negative control group−absorbance of specimen untreated group)]×100 [Equation 2]
i) specimen untreated group: group allowing reaction of ultrapure water and methanol
ii) specimen treated group: group allowing reaction of specimen by each concentration and DPPH
iii) negative control group: group allowing reaction of ultrapure water and DPPH
According to the concentration shown in Table 2 below, diols were diluted with a methanol solvent to prepare specimens, and each specimen was reacted with DPPH, and absorbance was measured, and the anti-oxidation ratios calculated are shown in Table 2 below.

## C[C@@H](O)[C@@H](C)O [2R,3R-butanediol]
Collagenase (MMP-1); 0.05 wt % in serum-free medium
  Collagenase (MMP-1)(pg/mL): 390.9 pg/mL
Collagenase (MMP-1); 0.05 wt %
  MMP-1 content relative to untreated control (%): 56.16%
Collagenase (MMP-1); 0.10 wt % in serum-free medium
  Collagenase (MMP-1)(pg/mL): 443.0 pg/mL
Collagenase (MMP-1); 0.10 wt %
  MMP-1 content relative to untreated control (%): 63.45%
Collagenase (MMP-1); 0.50 wt % in serum-free medium
  Collagenase (MMP-1)(pg/mL): 327.7 pg/mL
Collagenase (MMP-1); 0.50 wt %
  MMP-1 content relative to untreated control (%): 50.73%
Collagenase (MMP-1); 1.00 wt % in serum-free medium
  Collagenase (MMP-1)(pg/mL): 159.1 pg/mL
Collagenase (MMP-1); 1.00 wt %
  MMP-1 content relative to untreated control (%): 27.29%
Collagenase (MMP-1)
  restraining effects of collagenase: markedly increased
Collagenase (MMP-1); concentration of 1 wt %
  production of collagenase: markedly reduced

## CC(O)CCO (stereo not shown) [1,3-butanediol]
[1]; 0.1 wt % in methanol
  Anti-oxidation ratio (%): 2.89%
[1]; 0.5 wt % in methanol
  Anti-oxidation ratio (%): 1.46%
[1]; 1.0 wt % in methanol
  Anti-oxidation ratio (%): 1.00%
[1]
  change of anti-oxidation ratio with the increase of the concentration: rather decreased
Collagenase (MMP-1); 0.50 wt % in serum-free medium
  Collagenase (MMP-1)(pg/mL): 569.1 pg/mL
Collagenase (MMP-1); 0.50 wt %
  MMP-1 content relative to untreated control (%): 90.82%

## C[C@H](O)[C@@H](C)O [2R,3S-butanediol]
[1]; 0.1 wt % in methanol
  Anti-oxidation ratio (%): 2.23%
[1]; 0.5 wt % in methanol
  Anti-oxidation ratio (%): 3.95%
[1]
  change of anti-oxidation ratio with the increase of the concentration: increased
Collagenase (MMP-1); 0.05 wt % in serum-free medium
  Collagenase (MMP-1)(pg/mL): 370.2 pg/mL
Collagenase (MMP-1); 0.05 wt %
  MMP-1 content relative to untreated control (%): 60.78%
Collagenase (MMP-1); 0.10 wt % in serum-free medium
  Collagenase (MMP-1)(pg/mL): 364.7 pg/mL
Collagenase (MMP-1); 0.10 wt %
  MMP-1 content relative to untreated control (%): 59.80%
Collagenase (MMP-1); 0.50 wt % in serum-free medium
  Collagenase (MMP-1)(pg/mL): 324.2 pg/mL
Collagenase (MMP-1); 0.50 wt %
  MMP-1 content relative to untreated control (%): 56.69%
Collagenase (MMP-1); 1.00 wt % in serum-free medium
  Collagenase (MMP-1)(pg/mL): 321.4 pg/mL
Collagenase (MMP-1); 1.00 wt %
  MMP-1 content relative to untreated control (%): 62.63%
Collagenase (MMP-1)
  restraining effects of collagenase: markedly increased

## OCCCO [1,3-propanediol]
[1]; 0.1 wt % in methanol
  Anti-oxidation ratio (%): 5.34%
[1]; 0.5 wt % in methanol
  Anti-oxidation ratio (%): 2.17%
[1]; 1.0 wt % in methanol
  Anti-oxidation ratio (%): −1.23%
[1]
  change of anti-oxidation ratio with the increase of the concentration: rather decreased
Collagenase (MMP-1); 0.50 wt % in serum-free medium
  Collagenase (MMP-1)(pg/mL): 602.9 pg/mL
Collagenase (MMP-1); 0.50 wt %
  MMP-1 content relative to untreated control (%): 94.23%
